Consider five compounds from ChEMBL document CHEMBL6177932 (J Med Chem, 2024).

Active and inactive are the calls of the source. The rule behind the calls is not given here.

For series [1], the target named is T1, Vitamin D3 receptor (Mus musculus) (UniProt P48281).
T1 sequence (whole entry): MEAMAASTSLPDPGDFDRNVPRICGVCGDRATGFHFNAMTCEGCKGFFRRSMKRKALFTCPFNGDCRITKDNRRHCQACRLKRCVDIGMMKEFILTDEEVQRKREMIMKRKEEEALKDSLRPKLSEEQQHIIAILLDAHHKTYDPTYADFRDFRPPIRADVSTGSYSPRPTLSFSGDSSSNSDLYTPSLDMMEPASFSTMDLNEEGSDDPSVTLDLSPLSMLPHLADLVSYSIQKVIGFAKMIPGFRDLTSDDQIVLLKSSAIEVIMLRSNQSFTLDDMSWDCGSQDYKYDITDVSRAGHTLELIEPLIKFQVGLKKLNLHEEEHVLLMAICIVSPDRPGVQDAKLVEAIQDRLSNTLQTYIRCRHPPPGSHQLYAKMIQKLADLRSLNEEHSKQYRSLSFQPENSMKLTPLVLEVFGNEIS
The series is described as follows: Agonist activity at VDR in mouse 4T1 cells assessed as induction of Cyp24a1 gene at 0.1 to 10 uM measured after 24 hrs by RT-qPCR analysis. It is filed as cell-based. Particulars: filed as agonist, dose 0.1-10 µM.

Series [2] has as its target T2, Protein deacetylase HDAC6 (Mus musculus) (UniProt Q9Z2V5).
T2 sequence (whole entry): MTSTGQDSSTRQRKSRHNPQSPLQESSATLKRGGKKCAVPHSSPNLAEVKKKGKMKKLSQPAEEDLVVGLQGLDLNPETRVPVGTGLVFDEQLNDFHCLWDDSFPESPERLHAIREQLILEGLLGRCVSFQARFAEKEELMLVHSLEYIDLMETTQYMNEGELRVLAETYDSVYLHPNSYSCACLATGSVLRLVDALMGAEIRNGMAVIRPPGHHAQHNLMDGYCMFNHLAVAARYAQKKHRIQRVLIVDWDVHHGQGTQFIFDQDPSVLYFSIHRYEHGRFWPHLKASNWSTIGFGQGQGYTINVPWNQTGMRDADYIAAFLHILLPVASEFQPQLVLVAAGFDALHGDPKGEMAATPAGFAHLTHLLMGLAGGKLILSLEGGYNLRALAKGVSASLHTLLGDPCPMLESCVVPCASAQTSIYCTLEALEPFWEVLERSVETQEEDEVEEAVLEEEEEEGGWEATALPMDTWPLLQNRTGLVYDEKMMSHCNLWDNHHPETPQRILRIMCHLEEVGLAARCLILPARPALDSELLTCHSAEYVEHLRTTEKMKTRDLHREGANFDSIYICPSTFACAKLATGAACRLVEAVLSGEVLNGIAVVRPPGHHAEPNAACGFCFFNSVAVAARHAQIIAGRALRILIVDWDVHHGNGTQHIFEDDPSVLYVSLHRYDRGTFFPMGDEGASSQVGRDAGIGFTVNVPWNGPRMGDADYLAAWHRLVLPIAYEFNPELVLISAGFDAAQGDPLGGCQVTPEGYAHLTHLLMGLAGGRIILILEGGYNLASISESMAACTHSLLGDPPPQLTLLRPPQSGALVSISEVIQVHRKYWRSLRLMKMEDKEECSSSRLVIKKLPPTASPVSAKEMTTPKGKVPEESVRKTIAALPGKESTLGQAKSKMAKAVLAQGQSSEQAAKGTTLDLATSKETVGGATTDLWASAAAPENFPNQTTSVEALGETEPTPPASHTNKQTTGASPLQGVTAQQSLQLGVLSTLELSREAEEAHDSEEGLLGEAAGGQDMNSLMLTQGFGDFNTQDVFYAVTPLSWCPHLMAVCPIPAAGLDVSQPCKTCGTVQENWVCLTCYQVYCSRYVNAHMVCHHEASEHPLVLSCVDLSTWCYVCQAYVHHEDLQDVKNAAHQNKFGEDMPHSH
The series is described as follows: Inhibition of HDAC6 in mouse 4TO7 cells assessed as induction of tubulin acetylation at 10 uM measured after 6 hrs by Western blot analysis. It is filed as cell-based.

For series [3], the system named is 4T1. As to conditions: Mus musculus, time 24.0 hrs.
The subject of series [4] is 4TO7. The series is described as follows: Inhibition of class 1 HDAC in mouse 4TO7 cells assessed as induction of H3K9 acetylation at 10 uM measured after 6 hrs by Western blot analysis. It is filed as cell-based.
In series [5] the test system is 4TO7. The series is described as follows: Inhibition of class 1 HDAC in mouse 4TO7 cells assessed as induction of H3K27 acetylation at 10 uM measured after 6 hrs by Western blot analysis. It is filed as cell-based.
For series [6], the target named is T1, Vitamin D3 receptor (Mus musculus). The series is described as follows: Agonist activity at VDR in mouse 4TO7 cells assessed as induction of Cyp24a1 gene at 0.1 to 10 uM measured after 24 hrs by RT-qPCR analysis. It is filed as cell-based. As to conditions: filed as agonist, dose 0.1-10 µM. (In general: Quantitative PCR measures a nucleic acid by following its amplification.)

Series [7] is described as follows: Toxicity in mouse B16-F10 cells implanted C57BL/6 mouse assessed as effect on body weight at 50 mg/kg, ip administered daily for 28 days. Particulars: in vivo, time 28 day. It is filed as organism-based.
The subject of series [8] is B16-F10. The series is described as follows: Antitumor activity against mouse B16-F10 cells implanted in C57BL/6 mouse assessed as reduction in tumor burden at 50 mg/kg, ip administered every second day for 18 days. It is filed as functional, organism-based. Particulars: time 18.0 day.
Series [9] is described as follows: Toxicity in mouse B16-F10 cells implanted C57BL/6 mouse at 50 mg/kg, ip administered daily for 28 days. It is filed as organism-based. As to conditions: in vivo, time 28 day.
Series [10] has as its system 4T1. The series is described as follows: Antitumor activity against mouse 4T1 cells implanted in BALB/c mouse assessed as reduction in tumor burden at 0.2 mg/kg, ip administered daily for 18 days. It is filed as functional, organism-based. Particulars: time 18.0 day.
Series [11] is described as follows: Toxicity in mouse B16-F10 cells implanted C57BL/6 mouse at 0.2 mg/kg, ip administered daily for 28 days. It is filed as organism-based. As to conditions: in vivo, time 28 day.
Series [12] relates to 4T1. The series is described as follows: Inhibition of class 1 HDAC in mouse 4T1 cells assessed as induction of H3K27 acetylation at 10 uM measured after 6 hrs by Western blot analysis. It is filed as cell-based. (In western blotting, separated proteins are transferred to a membrane and probed.)
The test system of series [13] is B16-F10. The series is described as follows: Antitumor activity against mouse B16-F10 cells implanted in C57BL/6 mouse assessed as reduction in tumor burden at 0.2 mg/kg, ip administered every second day for 18 days. It is filed as functional, organism-based. As to conditions: time 18.0 day.
Series [14] deals with Mus musculus. The series is described as follows: Immunomodulatory activity in mouse 4T1 cells implanted BALB/c mouse assessed as induction of Il1a gene expression at 0.2 mg/kg, ip administered daily for 18 days by RT-qPCR analysis. It is filed as functional, organism-based. Particulars: time 18.0 day.
The test system of series [15] is B16-F10. The series is described as follows: Cytotoxicity against mouse B16-F10 cells assessed as reduction in cell viability at 0.01 to 100 uM measured after 24 hrs by RealTime-glo cell viability assay. It is filed as functional, cell-based. As to conditions: dose 0.01-100 µM.
For series [16], the target named is T2, Protein deacetylase HDAC6 (Mus musculus). The series is described as follows: Inhibition of HDAC6 in mouse 4T1 cells assessed as induction of tubulin acetylation at 10 uM measured after 6 hrs by Western blot analysis. It is filed as cell-based.
A short description of series [17]: Toxicity in 4T1 cells implanted BALB/c mouse assessed as stress at 0.2 mg/kg, ip administered daily for 18 days. It is filed as organism-based. Particulars: in vivo, 432 h, time 18 day.
The subject of series [18] is Mus musculus. The series is described as follows: Immunomodulatory activity in mouse 4T1 cells implanted BALB/c mouse assessed as reduction in Ccl5 gene expression at 0.2 mg/kg, ip administered daily for 18 days by RT-qPCR analysis. It is filed as functional, organism-based. Particulars: time 18.0 day.
In series [19] the test system is 4T1. The series is described as follows: Inhibition of class 1 HDAC in mouse 4T1 cells assessed as induction of H3K9 acetylation at 10 uM measured after 6 hrs by Western blot analysis. It is filed as cell-based.
In series [20] the test system is Mus musculus. The series is described as follows: Immunomodulatory activity in mouse 4T1 cells implanted BALB/c mouse assessed as reduction in Ccl20 gene expression at 0.2 mg/kg, ip administered daily for 18 days by RT-qPCR analysis. It is filed as functional, organism-based. Particulars: time 18.0 day.
Series [21] can be described thus: Toxicity in 4T1 cells implanted BALB/c mouse assessed as body weight loss at 0.2 mg/kg, ip administered daily for 18 days. It is filed as organism-based. Particulars: in vivo, 432 h, time 18 day.
Series [22] has as its system Mus musculus. The series is described as follows: Immunomodulatory activity in mouse 4T1 cells implanted BALB/c mouse assessed as reduction in Ccl2 gene expression at 0.2 mg/kg, ip administered daily for 18 days by RT-qPCR analysis. It is filed as functional, organism-based. Particulars: time 18.0 day.
Series [23] relates to Mus musculus. The series is described as follows: Immunomodulatory activity in mouse 4T1 cells implanted BALB/c mouse assessed as reduction in Cxcl10 gene expression at 0.2 mg/kg, ip administered daily for 18 days by RT-qPCR analysis. It is filed as functional, organism-based. Particulars: time 18.0 day.
Series [24] can be described thus: Toxicity in mouse B16-F10 cells implanted C57BL/6 mouse assessed as effect on body weight at 0.2 mg/kg, ip administered daily for 28 days. It is filed as organism-based. Particulars: in vivo, time 28 day.
In series [25] the target is T2, Protein deacetylase HDAC6 (Mus musculus). The series is described as follows: Inhibition of HDAC6 in mouse B16-F10 cells assessed as induction of tubulin acetylation at 10 uM measured after 6 hrs by Western blot analysis. It is filed as cell-based.
The subject of series [26] is B16-F10. The series is described as follows: Inhibition of class 1 HDAC in mouse B16-F10 cells assessed as induction of H3K9 acetylation at 10 uM measured after 6 hrs by Western blot analysis. It is filed as cell-based.
The test system of series [27] is B16-F10. The series is described as follows: Inhibition of class 1 HDAC in mouse B16-F10 cells assessed as induction of H3K27 acetylation at 10 uM measured after 6 hrs by Western blot analysis. It is filed as cell-based.

As to `CCC(CC)(c1ccc(C(=O)NCCCCCC(=O)NO)cc1)c1ccc(OCC(O)C(C)(C)C)c(C)n1` (configuration not stated), the Activity result in series [1] is reported as “Active; Did Not Appear To Be A Full Agonist”. Further, the inhibition result (in [2]; in the series on 4TO7 [4]; in the series with 4TO7 [5]) was “Active” each time. The outcome (with 4T1 [3]; in series [6]) was Active.
With `Nc1ccn([C@@H]2O[C@H](CO)[C@@H](O)C2(F)F)c(=O)n1` [GEMCITABINE], the Activity result in series [7] and in series [9] was “Non-toxic” in each case. Moreover, the outcome in the series on B16-F10 [8] was Active.
Consider `CCC(CC)(c1ccc(OCCCCCC(=O)NO)cc1)c1ccc(OCC(O)C(C)(C)C)c(C)n1` (configuration not stated), for which the result (in the series with 4T1 [10]; in series [1]; in the series on B16-F10 [13]; in the series on Mus musculus [14]; in the series with B16-F10 [15]; in the series on Mus musculus [18]) was Active. Moreover, the outcome (in the series on Mus musculus [20]; with Mus musculus [22]; in the series with Mus musculus [23]; in [6]) was Active. Also, the Activity entry in series [11], in series [17], in [21] and in series [24] was “Non-toxic” throughout. For the same compound, the inhibition result (with 4T1 [12]; in [16]; in the series with 4T1 [19]) was “Active” each time.
Consider `CCC(CC)(c1ccc(C(=O)NCCCC(=O)NO)cc1)c1ccc(OCC(O)C(C)(C)C)c(C)n1` (configuration not stated), for which the Activity result in series [1] is “Active; Did Not Appear To Be A Full Agonist”. In addition, the inhibition result (in series [2]; in the series on 4TO7 [4]; with 4TO7 [5]) was “Active” in each case. In addition, the result (in the series with 4T1 [3]; in [6]) was Active.
Regarding `CCC(CC)(c1ccc(C(=O)NCCCCCC(=O)NO)cc1)c1ccc(OCC(O)C(C)(C)C)c(C)c1` (configuration not stated), the inhibition result (in series [25]; with B16-F10 [26]; with B16-F10 [27]) was “Active; High Levels Of Acetylation Observed” in each case. Moreover, the result in [1] and in [6] was Active.
